Reference: patent US20110059186A1, “CANCER STEM CELL-TARGETED AND DRUG RESISTANT CANCER THERAPY” (KOMINOX USA, INC., priority 2009, published 2011)
Where two headings read alike, the source gives them in different places.

What was measured:
Type in all cases: cell-based, human
DU145 wt cells = test: MTT proliferation assay, DU145 wt
Protocol: (§1) Cell Lines: DU145 wt, DU145/Pac200 and DU145/Doc50 cells were provided by Dr. Hussain, UMGCC, University of Maryland. The cell lines were cultured as recommended; in 1:1 DMEM/F12 media (Invitrogen) supplemented with 5% FBS, 1% antibiotics and grown under standard conditions at 37° C. and 5% CO2. Paclitaxel and docetaxel resistant clones were kept under selection pressure of the drugs.
(§2) MTT Proliferation Assay: Exponentially growing cells were harvested and plated in 96-well plates (1,500/well for DU145 wt, and 2,000-3,000/well for DU145/Pac200 and DU145/Doc50). Drugs being tested were added at concentrations ranging from 0.01 μM to 100 μM to asses their growth inhibitory potential. After 5 days of continuous exposure to drug, the vital dye 3-(4,5-dimethylthiazol-2-yl)-2,5-diphenyltetrazoliumbromide (MTT) was added to the plates. The conversion of MTT to purple formazan by viable cells was measured using a Synergy2 plate reader at 550 nm and Gen5 software. Growth curves were generated using Microsoft Excel and growth inhibitory concentration 50 (IC50) and 100% were determined.

[1] = tested on: DU145/Pac200 (paclitaxel resistant) cells; test: MTT proliferation assay, DU145/Pac200
Protocol: as §1, §2

[2] = tested on: DU145/Doc50 (docetaxel resistant) cells; test: MTT proliferation assay, DU145/Doc50
Protocol: as §1, §2

LnCaP cells = details: read-out: IC50 KML001
LnCaP/C81 cells = details: read-out: IC50 KML001
LAPC-4 cells = details: read-out: IC50 KML001
LAPC-4/CSS100 cells = details: read-out: IC50 KML001
[3] = tested on: side population of DU145 cells
[4] = tested on: side population of DU145/Pac200 cells
[5] = tested on: DU145 cancer stem cell population; details: read-out: IC50, colony forming capability
[6] = tested on: DU145/Pac200 cancer stem cell population; details: read-out: IC50, colony forming capability
hTERT transcript = tested on: hTERT transcript
[7] = tested on: Pgp positive cell population of taxane-resistant prostate cancer cell lines; test: Pgp surface expression by flow cytometry; details: treatment at IC50 for 72 hours
Protocol: (§3) Flow Cytometry: Samples were read on a BDLSR II flow cytometer. A 405 nM violet laser excited the DCV dye producing varying wavelengths based on cell differentiation. Detectors at 450/50 (blue) and 680/30 (red) intercepted the emitted wavelength and plotted the data on the scatter plot accordingly. CD44 and Pgp staining was performed using PE (Pgp) or APC (CD44) labeled antibodies and their isotype controls following routine procedures for epitope labeling.
The drug efflux pump (Pgp) is functionally expressed (at the membrane) in the majority of cells in the taxane-resistant prostate cancer cell lines, which is expected since the SP of those cell lines was suppressible with the drug efflux pump inhibitor verapamil. Treatment with KML001 at IC50 for 72 hours reduced the Pgp positive cell population, which corroborates the results of the clonogenic and SP assay.

[8] = tested on: prostate cancer cell lines (taxane-resistant, androgen resistant and parental); test: MTT assay across the panel of prostate cancer cell lines
Protocol: as §2
Taxane resistant cell lines DU145/Pac200 (highly pacitaxel resistant) and DU145/Doc50 (highly docetaxel resistant) together with the parental cell line DU145 as well as the androgen resistant cancer cell lines (LNCaP/C81 and LAPC-4/CSS100) and their corresponding hormone responsive parental cell lines (LNCaP and LAPC-4) were tested for their response to sodium meta arsenite.
The cancer cell lines that were resistant to paclixel and docetaxel were tested using a well-established tumor clonigenic stem cell assay for their response to KML001. (FIG. 6) The assay allows only the cancer stem cell population to grow in a soft agar matrix owing to their self-renewal capability. […]

[9] = tested on: side population of DU145/Doc50 cells
Protocol: (§4) Three samples were analyzed each time. Of the samples one was treated with DCV only, another was treated with DCV and 50 μM Verapamil (PgP inhibitor), and the last was treated with DCV and 10 μM Fumitremorgin C (FTC, BCRP inhibitor). The samples were then read and analyzed using flow cytometry.
as §3, with “A 405 nM violet laser excited the DCV dye producing varying wavelengths based on cell differentiation.” left out
(§5) Each of the prostate cell lines was analyzed for the existence of a cancer stem-like cell fraction using DCV side population analysis. […] The occurrence of a SP is based on the expression of drug efflux pumps such as P-glycoprotein or BCRP, which are responsible for preventing standard cytotoxic therapy from working. […] Because the hormone therapies, e.g., androgen synthesis inhibitors, are not substrates of drug efflux pumps, these findings are not surprising.

[10] = tested on: side population of LAPC-4 cells
Protocol: as §4
as §3, with “A 405 nM violet laser excited the DCV dye producing varying wavelengths based on cell differentiation.” left out
as §5

[11] = tested on: side population of LAPC-4/CSS100 cells
Protocol: as §4
as §3, with “A 405 nM violet laser excited the DCV dye producing varying wavelengths based on cell differentiation.” left out
as §5

[12] = tested on: side population of LnCaP cells
Protocol: as §4
as §3, with “A 405 nM violet laser excited the DCV dye producing varying wavelengths based on cell differentiation.” left out
as §5

[13] = tested on: side population of LnCaP/C81 cells
Protocol: as §4
as §3, with “A 405 nM violet laser excited the DCV dye producing varying wavelengths based on cell differentiation.” left out
as §5

[14] = DU145/Pac200 relative to DU145 wt
[15] = Du145 Doc50 relative to DU145 wt

## O=[As][O-].[Na+] [KML001, sodium meta arsenite]
DU145 wt cells
  IC100 concentration: 13 µM
  growth inhibition: marked inhibition of growth
DU145 wt cells; read-out: IC50 KML001
  IC50: 4000 nM
[1]; DU145/Pac200, MTT
  growth inhibition: marked inhibition of growth
[1]; DU145/Pac200, MTT, 5 days continuous exposure, read-out: IC50 KML001
  IC50: 6000 nM
[2]; DU145/Doc50, MTT
  growth inhibition: marked inhibition of growth
[2]; DU145/Doc50, MTT, 5 days continuous exposure, read-out: IC50 KML001
  IC50: 5000 nM
LnCaP cells
  IC50: 4000 nM
LnCaP/C81 cells
  IC50: 1000 nM
LAPC-4 cells
  IC50: 4000 nM
LAPC-4/CSS100 cells
  IC50: 3000 nM
[3]
  effect on mature (non-SP) cells after pretreatment: also eradicated
  effect on side population (SP) after pretreatment: drastically reducing the SP
[4]
  effect on mature (non-SP) cells after pretreatment: also eradicated
  effect on side population (SP) after pretreatment: drastically reducing the SP
[5]
  IC50: 6000 nM
[6]
  IC50: 6000 nM
hTERT transcript
  hTERT transcript level: significantly decreases
[7]
  Pgp positive cell population: reduced
[8]; growth curves from standard MTT assays
  sensitivity of resistant versus parental cell lines: equally effective
[8]; taxane-resistant, androgen resistant and hormone responsive parental lines, read-out: IC50's across all prostate cancer cell lines
  IC50: 1000 to 6000 nM

## N.N.[Cl][Pt][Cl] [cisplatin]
DU145 wt cells; DU145 parental, standard MTT, read-out: IC50 of cisplatin
  IC50: 4000 nM
[1]; DU145/Pac200, standard MTT, read-out: IC50 of cisplatin
  IC50: 3000 nM

## CC(=O)O[C@H]1C(=O)[C@@]2(C)[C@H]([C@H](OC(=O)c3ccccc3)[C@]3(O)C[C@H](OC(=O)[C@H](O)[C@@H](NC(=O)c4ccccc4)c4ccccc4)C(C)=C1C3(C)C)[C@]1(OC(C)=O)CO[C@@H]1C[C@@H]2O [Paclitaxel]
DU145 wt cells; DU145 wt (reference line)
  Paclitaxel Resistance (fold): 1 fold
DU145 wt cells; Homo sapiens, DU-145, DU145 wt, read-out: Paclitaxel IC50
  IC50: 2.5 nM
[1]; [14]
  Paclitaxel Resistance (fold): 140 fold
[1]; Homo sapiens, DU-145, DU145/Pac200, read-out: Paclitaxel IC50
  IC50: 350 nM
[2]; [15]
  Paclitaxel Resistance (fold): 400 fold
[2]; Homo sapiens, DU-145, Du145 Doc50, read-out: Paclitaxel IC50
  IC50: 1000 nM

## COc1ccc(CCN(C)CCCC(C#N)(c2ccc(OC)c(OC)c2)C(C)C)cc1OC (stereo not shown) [Verapamil]
[3]; DU145, DCV with 50 μM Verapamil, SP 1.04 % without inhibitor
  SP % with Verapamil: 0.16%
[4]
  SP % with Verapamil: 0.07%
[9]
  SP % with Verapamil: 1.35%
[10]
  SP % with Verapamil: 1.63%
[11]
  SP % with Verapamil: 0.19%
[12]
  SP % with Verapamil: 0.12%
[13]
  SP % with Verapamil: 0.07%

## CC(=O)O[C@@]12CO[C@@H]1C[C@H](O)[C@@]1(C)C(=O)[C@H](O)C3=C(C)[C@@H](OC(=O)[C@H](O)[C@@H](NC(=O)OC(C)(C)C)c4ccccc4)C[C@@](O)([C@@H](OC(=O)c4ccccc4)[C@H]21)C3(C)C [Docetaxel]
DU145 wt cells; DU145 wt (reference line)
  Docetaxel Resistance (fold): 1 fold
DU145 wt cells; Homo sapiens, DU-145, DU145 wt, read-out: Docetaxel IC50
  IC50: 0.5 nM
[1]; [14]
  Docetaxel Resistance (fold): 400 fold
[1]; Homo sapiens, DU-145, DU145/Pac200, read-out: Docetaxel IC50
  IC50: 200 nM
[2]; [15]
  Docetaxel Resistance (fold): 2000 fold
[2]; Homo sapiens, DU-145, Du145 Doc50, read-out: Docetaxel IC50
  IC50: 1000 nM

## COc1ccc2c3c([nH]c2c1)[C@H](C=C(C)C)N1C(=O)[C@@H]2CCCN2C(=O)[C@@H]1C3 [FTC, Fumitremorgin C]
[3]; DU145, DCV with 10 μM FTC, SP 1.04 % without inhibitor
  SP % with FTC: 0.06%
[4]; DU145/Pac200, DCV with 10 μM FTC, SP 55 % without inhibitor
  SP % with FTC: 56.5%
[4]; Pac resistant DU145 cells
  inhibition of SP by efflux pump inhibitor: not
[9]; DU145/Doc50, DCV with 10 μM FTC, SP 40.3 % without inhibitor
  SP % with FTC: 18.35%
[9]; Doc resistant DU145 cells
  inhibition of SP by efflux pump inhibitor: not
[10]; LAPC-4
  suppression of SP by efflux pump inhibitor: suppressible
[10]; LAPC-4, DCV with 10 μM FTC, SP 1.54 % without inhibitor
  SP % with FTC: 2.24%
[11]; LAPC-4/CSS100, DCV with 10 μM FTC, SP 0.36 % without inhibitor
  SP % with FTC: 0.30%
[11]; hormone resistant derivative of LAPC-4
  suppression of SP by efflux pump inhibitor: suppressible
[12]; LnCaP parental line
  suppression of SP by efflux pump inhibitor: suppressible
[12]; LnCaP, DCV with 10 μM FTC, SP 0.66 % without inhibitor
  SP % with FTC: 0.04%
[13]; LnCaP/C81
  suppression of SP by efflux pump inhibitor: suppressible
[13]; LnCaP/C81, DCV with 10 μM FTC, SP 0.16 % without inhibitor
  SP % with FTC: 0.11%
